According to patent US20040248913A1, “(Pyridinyl and pyrimidyl) trienoic acid derivatives as retinoid x receptor modulators” (priority 2001, published 2004):

Target: T1, RXRα homodimer (Homo sapiens, UniProt P19793)
T1 sequence (P19793 1-462): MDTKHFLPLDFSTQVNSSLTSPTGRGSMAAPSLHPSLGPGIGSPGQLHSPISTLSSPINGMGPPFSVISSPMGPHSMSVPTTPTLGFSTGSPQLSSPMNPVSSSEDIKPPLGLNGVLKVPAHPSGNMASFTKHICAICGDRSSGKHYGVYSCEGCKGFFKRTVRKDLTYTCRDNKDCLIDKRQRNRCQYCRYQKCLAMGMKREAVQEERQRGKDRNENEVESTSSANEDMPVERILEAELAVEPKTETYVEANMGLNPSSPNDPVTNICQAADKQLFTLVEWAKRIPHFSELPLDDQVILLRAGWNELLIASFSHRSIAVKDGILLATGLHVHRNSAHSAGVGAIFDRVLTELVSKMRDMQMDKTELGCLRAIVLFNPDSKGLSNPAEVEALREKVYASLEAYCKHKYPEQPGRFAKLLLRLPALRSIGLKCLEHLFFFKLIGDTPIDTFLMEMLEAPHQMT
Test: RXR homodimer co-transfection assay in CV-1 cells (CRBPIITKLUC reporter)
Type: cell-based
Conditions: for Agonist Efficacy (%): mean of n > 2; for Antagonist Efficacy (%) / IC50: RXRα homodimer; for Antagonist Efficacy (%): % of maximal inhibition in presence of fixed concentration (3.2×10^−8 M) of known RXR agonist; for IC50: in presence of known RXR agonist, read-out: Antagonist IC50; for Activity in the context of RXR homodimers (in words): summary of Table 1
From the text: This assay is described in further detail in U.S. Pat. Nos. 4,981,784 and 5,071,773, the disclosures of which are incorporated herein by reference.
The co-transfection assay provides a method for identifying functional agonists which mimic, or antagonists which inhibit, the effect of native hormones, and quantifying their activity for responsive IR proteins. In this regard, the co-transfection assay mimics an in vivo system in the laboratory. Importantly, activity in the co-transfection assay correlates very well with known in vivo activity, such that the co-transfection assay functions as a qualitative and quantitative predictor of a tested compounds in vivo pharmacology. See, e.g., T. Berger et al. 41 J. Steroid Biochem. Molec. Biol. 773 (1992), the disclosure of which is herein incorporated by reference.
In the co-transfection assay, cloned cDNA for one or more IRs (e.g., human RARα, RXRα, or PPARγ), alone or in combination (i.e. for heterodimer assays) under the control of a constitutive promoter (e.g., the SV 40, RSV or CMV promoter) is introduced by transfection (a procedure to introduce exogenous genes into cells) into a background cell substantially devoid of endogenous IRs. These introduced gene(s) direct the recipient cells to make the IR protein(s) of interest. A further gene is also introduced (co-transfected) into the same cells in conjunction with the IR gene(s). This further gene, comprising the cDNA for a reporter protein, such as firefly luciferase (LUC), controlled by an appropriate hormone responsive promoter containing a hormone response element (HRE). This reporter plasmid functions as a reporter for the transcriptional-modulating activity of the target IR(s). Thus, the reporter acts as a surrogate for the products (mRNA then protein) normally expressed by a gene under control of the target receptor(s) and their native hormone(s).
Exposing the transfected cells to an agonist ligand compound increases reporter activity in the transfected cells. This activity can be conveniently measured, e.g., by increasing luciferase production and enzymatic activity, which reflects compound-dependent, IR-mediated increases in reporter transcription. To detect antagonists, the co-transfection assay is carried out in the presence of a constant concentration of an known agonist to the target IR (e.g., 4-[(3,5,5,8,8-Pentamethyl-5,6,7,8-tetrahydro-2-naphthyl)ethenyl]benzoic acid (Ligand Pharmaceuticals, Inc.) for RXRα) known to induce a defined reporter signal. Increasing concentrations of an antagonist will decrease the reporter signal (e.g., luciferase production). The co-transfection assay is therefore useful to detect both agonists and antagonists of specific IRs. Furthermore, it determines not only whether a compound interacts with a particular IR, but whether this interaction mimics (agonizes) or blocks (antagonizes) the effects of native or synthetic regulatory molecules on target gene expression, as well as the specificity and strength of this interaction.
The receptor expression plsmid was cotransfected along with a reporter plasmid at 50 ng/well, the internal control plasmid pRS-β-Gal at 50 ng/well and filler DNA, pGEM, at 90 ng/well.

[1] = RXRα homodimer cotransfection, CV-1 cells
[2] = not calculated if efficacy <10%

Compound	Agonist Efficacy (%) [1] [%]	Antagonist Efficacy (%)	IC50 [2] [nM]	EC50 (RXRα homodimer cotransfection, CV-1 cells, not calculated if efficacy <10%, read-out: Agonist EC50) [nM]	Activity in the context of RXR homodimers (in words)
CCCCOc1c(\C(C)=C/C=C/C(C)=C/C(=O)O)cc(C(C)C)nc1C(C)C [Example 1, 7-(3-Butoxy-2,6-diisopropyl-pyridin-4-yl)-3-methyl-octa-2(E),4(E),6(Z)-trienoic Acid]	1	93	3.5	–	highly efficacious and potent antagonist activity with little or no agonists activity
CCCOc1c(\C(C)=C/C=C/C(C)=C/C(=O)O)cc(C(C)C)nc1C(C)C [Example 2, 7-(2,6-Diisopropyl-3-propoxy-pyridin-4-yl)-3-methyl-octa-2(E),4(E),6(Z)-trienoic Acid]	4	88	4.1	–	highly efficacious and potent antagonist activity with little or no agonists activity

Second part, led by results:

Agonist Efficacy (%) [1] [%]	Antagonist Efficacy (%)	IC50 [2] [nM]	EC50 (RXRα homodimer cotransfection, CV-1 cells, not calculated if efficacy <10%, read-out: Agonist EC50) [nM]	Compound	Activity in the context of RXR homodimers (in words)
9	76	8.7	–	C/C(=C/C=C/C(C)=C/C(=O)O)c1cc(C(C)C)nc(C(C)C)c1OCC(F)F [Example 4, 7-[3-(2,2-Difluoro-ethoxy)-2,6-diisopropyl-pyridin-4-yl]-3-methyl-octa-2(E),4(E),6(Z)-trienoic acid]	highly efficacious and potent antagonist activity with little or no agonists activity
3	85	8	–	C/C(=C/C=C/C(C)=C/C(=O)O)c1cc(C(C)C)nc(C(C)C)c1OCC(F)(F)F [Example 5, 7-[2,6-Diisopropyl-3-(2,2,2-trifluoro-ethoxy)-pyridin-4-yl]-3-methyl-octa-2(E),4(E),6(Z)-trienoic acid]	highly efficacious and potent antagonist activity with little or no agonists activity
51	3	–	2	CCOc1c(\C(C)=C/C=C/C(C)=C/C(=O)O)cc(C(C)C)nc1C(C)C [Example 3, 7-(2,6-Diisopropyl-3-ethoxy-pyridin-4-yl)-3-methyl-octa-2(E),4(E),6(Z)-trienoic acid]	agonist activity
